Measurements taken from patent US20250346601A1, “HETEROCYCLIC COMPOUNDS FOR THE PREVENTION AND THERAPY OF CIRCADIAN RHYTHM DISORDERS” (UNIVERZITA PALACKEHO V OLOMOUCI, priority 2022, published 2025).

How the values were obtained:
[1] = test system: NIH3T3 line transfected with the Per2-Luc reporter; assay: Period of the circadian rhythm in NIH3T3 fibroblasts with Per2-Luc reporter (luminescence, cosinor analysis); type: cell-based, mouse; conditions: NIH3T3, DMSO control = 1.00
Experimental: NIH3T3 mouse embryonic fibroblasts were grown in standard DMEM with 10% fetal bovine serum. NIH3T3 cells were transfected with 1 μg of Per2-Luc reporter using GeneJuice and selected under hygromycin. The cell line was clonally expanded and a single monoclonal cell line was used for further experiments. Cells were cultured in a 96-well plate in growth medium to 90+% confluence. Test compound or vehicle (DMSO) was applied to recording medium with 100 U/ml penicillin, 100 μg/ml streptomycin, 1x GlutaMAX, 10% fetal calf serum and 0.1 mM Luciferin-EF (Promega Madison, WI, USA). Luminescence was recorded every hour for the next 144 hours. Circadian rhythm analysis was performed using cosinor analysis. Period length was expressed relative to the period of cells affected only by DMSO vehicle (their period length is therefore 1.00).

[2] = test system: U2OS line transduced with the Bmal 1-Luc reporter; assay: Period of the circadian rhythm in U2OS cells with Bmal1-Luc reporter (luminescence, cosinor analysis); type: cell-based, Human; conditions: U2OS, DMSO control = 1.00
Experimental: Human osteosarcoma U2OS cells were grown in standard DMEM medium with 10% fetal bovine serum. U2OS cells were transduced with lentiviral particles containing a Bmall-Luc fusion reporter and selected under Blasticidin. The cell line was clonally expanded and a single monoclonal cell line was used for further experiments. Cells were cultured in a 384-well plate in growth medium to 90+% confluence. Test compound or vehicle (DMSO) was applied to recording medium with 100 U/ml penicillin, 100 ug/ml streptomycin, 1x GlutaMAX, 10% fetal bovine serum, and 0.1 mM Luciferin-EF. Luminescence was recorded every hour for the next 144 hours. Circadian rhythm analysis was performed using cosinor analysis.
The length of the period was expressed relative to the period of cells affected only by DMSO vehicle (their period is therefore 1.00). […] The overall effect on circadian oscillations unequivocally proves that the compounds of formula I can be also used to temporally modulate the concentration and activity of not only BMAL1, but also other components of the oscillator including the critical components PER2, CRY and CLOCK in time, as these are an essential part of the mechanism generating the rhythmic expression of the luminescent reporter used. The concentration and level of other proteins, whose rhythmic expression is controlled by an oscillator in the brain and peripheral tissues (so-called clock-controlled genes), are also necessarily affected. The influence of the compounds of formula I on the activity of oscillator components and subordinate genes also means influencing the physiological processes of the cell controlled by these genes and proteins. N^6-furfuryladenine was used as a reference compound. […] The ability to shift the phase of the circadian cycle can be seen in FIG. 2.

| Structure (SMILES) | Period length ± standard error of the mean (expressed relative to the control) at the indicated concentration ([1]; 10 μM) | Period length ± standard error of the mean (expressed relative to control) at the indicated concentration ([2]; 10 μM) | Period length ± standard error of the mean (expressed relative to the control) at the indicated concentration ([1]; 50 μM) | Period length ± standard error of the mean (expressed relative to control) at the indicated concentration ([2]; 50 μM) | further results |
| --- | --- | --- | --- | --- | --- |
| Clc1nc(NCc2ccco2)c2ncn(C3CCOCC3)c2n1 [Compound 10] | 10 μM: 1.14 ± 0.01 | 10 μM: 1.09 ± 0.01 |  |  |  |
| COCCCCn1cnc2c(NCc3ccco3)ncnc21 [N-(furan-2-ylmethyl)-9-(4-methoxybutyl)-9H-purin-6-amine, reference compound] |  |  | 50 μM: 0.97 ± 0.03 | 50 μM: 1 ± 0.01 |  |
| CN(C)CCNc1nc(NCc2ccco2)c2ncn(C3CCCCO3)c2n1 (centres unmarked) [Compound 44] |  |  | 50 μM: 1.72 ± 0.04 |  | Period length ± standard error of the mean (expressed relative to control) at the indicated concentration ([2]; 1 μM): 1.05 ± 0.01; Period length ± standard error of the mean (expressed relative to control) at the indicated concentration ([2]; 5 μM): 1.28 ± 0.02 |
| CN(C)c1nc(NCc2ccco2)c2ncn(C3CCCCO3)c2n1 (centres unmarked) [Compound 34] |  | 1.12 ± 0.01 | 50 μM: 2.3 ± 0.03 | 50 μM: 1.73 ± 0.6 | Period length ± standard error of the mean (expressed relative to control) at the indicated concentration ([2]; 20 μM): 1.25 ± 0.03 |
| CCOCCn1cnc2c(NCc3ccco3)ncnc21 [9-(2-ethoxyethyl)-N-(furan-2-ylmethyl)-9H-purin-6-amine, reference compound] |  |  | 50 μM: 0.97 ± 0.03 | 50 μM: 0.99 ± 0.01 |  |
| CNc1nc(NCc2ccco2)c2ncn(C3CCCCO3)c2n1 (centres unmarked) [Compound 33] |  |  | 50 μM: 1.18 ± 0.02 |  | Period length ± standard error of the mean (expressed relative to control) at the indicated concentration ([2]; 5 μM): 5 μM: 1.04 ± 0 |
| c1ccc(Cn2cnc3c(NCc4ccco4)ncnc32)cc1 [9-benzyl-N-(furan-2-ylmethyl)-9H-purin-6-amine, reference compound] | 10 μM: 1 ± 0.02 | 10 μM: 1 ± 0.02 |  |  |  |
| COCCCNc1nc(NCc2ccco2)c2ncn(C3CCCCO3)c2n1 (centres unmarked) [Compound 46] |  |  | 50 μM: 1.27 ± 0.04 |  | Period length ± standard error of the mean (expressed relative to control) at the indicated concentration ([2]; 20 μM): 20 μM: 1.05 ± 0.01 |
| NCCNc1nc(NCc2ccco2)c2ncn(C3CCCC3)c2n1 [Compound 18] | 1.19 ± 0 |  | 2.19 ± 0.35 |  | Period length ± standard error of the mean (expressed relative to control) at the indicated concentration ([2]; 1 μM): 1 μM: 1.16 ± 0.03 |
| CN(CCN)c1nc(NCc2ccco2)c2ncn(C3CCCC3)c2n1 [Compound 16] | 2.02 ± 0.06 | 1.26 ± 0.07 |  |  | Period length ± standard error of the mean (expressed relative to the control) at the indicated concentration ([1]; 0.83 μM): 1.05 ± 0.01; Period length ± standard error of the mean (expressed relative to control) at the indicated concentration ([2]; 20 μM): 1.95 ± 0.14 |
| c1coc(CNc2ncnc3c2ncn3C2CCCC2)c1 [Compound 1] | 1.17 ± 0.01 | 10 μM: 1.19 ± 0.02 | 1.54 ± 0.01 |  |  |
| CN(C)c1nc(NCc2ccco2)c2ncn(C3CCCC3)c2n1 [Compound 15, 9-cyclopentyl-N^6-(furan-2-ylmethyl)-N^2,N^2-dimethyl-9H-purine-2,6-diamine] |  |  | 1.56 ± 0.07 |  | Period length ± standard error of the mean (expressed relative to the control) at the indicated concentration ([1]; 0.83 μM): 1.08 ± 0.05; Period length ± standard error of the mean (expressed relative to control) at the indicated concentration ([2]; 1 μM): 1.05 ± 0.01; Period length ± standard error of the mean (expressed relative to control) at the indicated concentration ([2]; 4 μM): 1.15 ± 0.01 |
| CC(C)OCCn1cnc2c(NCc3ccco3)ncnc21 [N-(furan-2-ylmethyl)-9-(2-isopropoxyethyl)-9H-purin-6-amine, reference compound] |  |  | 50 μM: 0.95 ± 0.02 | 50 μM: 1.01 ± 0.01 |  |
